The source of these data is ChEMBL document CHEMBL3826908, “Bortezomib inhibits bacterial and fungal β-carbonic anhydrases” (Bioorg Med Chem, 2016).

The nature of experiment [1]: Inhibition of Mycobacterium tuberculosis beta-carbonic anhydrase Rv3588 preincubated for 15 mins by stopped-flow CO2 hydration assay.
The nature of experiment [2]: Inhibition of Candida glabrata beta-carbonic anhydrase preincubated for 15 mins by stopped-flow CO2 hydration assay. On the set-up: species or system Nakaseomyces glabratus.
A short description of experiment [3]: Inhibition of Malassezia globosa beta-carbonic anhydrase preincubated for 15 mins by stopped-flow CO2 hydration assay.
Experiment [4] can be described thus: Inhibition of Flaveria bidentis beta-carbonic anhydrase preincubated for 15 mins by stopped-flow CO2 hydration assay.
Experiment [5] in a line: Inhibition of Cryptococcus neoformans beta-carbonic anhydrase preincubated for 15 mins by stopped-flow CO2 hydration assay.
Experiment [6] in a line: Inhibition of Drosophila melanogaster beta-carbonic anhydrase preincubated for 15 mins by stopped-flow CO2 hydration assay.
For experiment [7], the target named is Carbonic anhydrase 1 (Homo sapiens, UniProt P00915).
In experiment [8] the target is Carbonic anhydrase 2 (Homo sapiens, UniProt P00918).
Experiment [9] is described as follows: Inhibition of Mycobacterium tuberculosis beta-carbonic anhydrase Rv3273 preincubated for 15 mins by stopped-flow CO2 hydration assay.
Experiment [10] has as its target T1, Beta-carbonic anhydrase 1 (Mycobacterium tuberculosis, UniProt P9WPJ7).
T1 sequence (P9WPJ7 whole entry): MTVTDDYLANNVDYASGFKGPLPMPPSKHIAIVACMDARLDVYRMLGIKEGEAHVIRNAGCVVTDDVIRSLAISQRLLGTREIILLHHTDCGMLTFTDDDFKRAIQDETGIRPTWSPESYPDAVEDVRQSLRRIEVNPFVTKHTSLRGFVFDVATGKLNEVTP
Kind of experiment: Inhibition of Mycobacterium tuberculosis beta-carbonic anhydrase Rv1284 preincubated for 15 mins by stopped-flow CO2 hydration assay.

A short description of experiment [11]: Inhibition of Candida albicans beta-carbonic anhydrase preincubated for 15 mins by stopped-flow CO2 hydration assay.

Carbonic anhydrase 1, sequence (P00915 whole entry): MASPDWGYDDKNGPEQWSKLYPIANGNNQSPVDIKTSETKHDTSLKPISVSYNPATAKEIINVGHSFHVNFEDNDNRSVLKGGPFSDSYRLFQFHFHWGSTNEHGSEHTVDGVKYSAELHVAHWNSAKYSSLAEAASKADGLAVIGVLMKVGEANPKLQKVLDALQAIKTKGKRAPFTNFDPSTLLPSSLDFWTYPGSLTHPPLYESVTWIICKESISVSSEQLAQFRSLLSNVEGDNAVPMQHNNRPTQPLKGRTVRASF

A word on the Ki: it is the equilibrium dissociation constant of an inhibitor or competing ligand from its target. Low values mean a stronger hold on the target, high ones a looser hold on the target. As for `CC(=O)Nc1nnc(S(N)(=O)=O)s1` [ACETAZOLAMIDE], the Ki in experiment [1] came to 0.01 µM; in experiment [2], 0.011 µM; in [3], 74 µM; in experiment [4], […]; in experiment [5] it was 0.01 µM; in experiment [6] it was 0.049 µM.

As for `CC(C)C[C@H](NC(=O)[C@H](Cc1ccccc1)NC(=O)c1cnccn1)B(O)O` [BORTEZOMIB], the inhibition constant Ki in [7] was 1290 nM; in experiment [1], 4.2 µM; in [2] it was 5.73 µM; in experiment [8], 1160 nM; in experiment [9] it was 6.5 µM; in experiment [10] it was 7.3 µM. For the same molecule, the inhibition constant (Ki) stood at 3.24 µM in [3]; 8.45 µM in experiment [4]; 1120 nM in experiment [11]; 4.7 µM in [5]; 11.3 µM in [6].

Turning to `OB(O)c1ccccc1` [PHENYLBORONIC ACID], the Ki in experiment [7] was above 100000 nM; in experiment [1] it was 48 µM; in [2], 100 µM; in [8] it was above 100000 nM; in experiment [9] it was 67 µM; in experiment [10] it was 58 µM. Further, the Ki is 89 µM in experiment [3]; 8 µM in experiment [4]; above 100000 nM in experiment [11]; above 100 µM in experiment [5]; above 100 µM in experiment [6].
